Like-named read-outs stand apart in the source and are kept apart here.
Columns and labels:
Assay in all cases: biochemical
Assay type in all cases: binding
[1] = target: 468 kinases including some pathogenic mutants (Homo sapiens, UniProt Q13237); settings: PRKG2 (Entrez PRKG2), 100 nM; read-out: Percent Control
[2] = target: 468 kinases including some pathogenic mutants (Homo sapiens, UniProt Q15746); settings: MYLK (Entrez MYLK), 100 nM; read-out: Percent Control
[3] = target: 468 kinases including some pathogenic mutants (Homo sapiens, UniProt P06239); settings: LCK (Entrez LCK), 100 nM; read-out: Percent Control
468 kinases including some pathogenic mutants (Homo sapiens, UniProt P06239), sequence (P06239 whole entry, change not shown): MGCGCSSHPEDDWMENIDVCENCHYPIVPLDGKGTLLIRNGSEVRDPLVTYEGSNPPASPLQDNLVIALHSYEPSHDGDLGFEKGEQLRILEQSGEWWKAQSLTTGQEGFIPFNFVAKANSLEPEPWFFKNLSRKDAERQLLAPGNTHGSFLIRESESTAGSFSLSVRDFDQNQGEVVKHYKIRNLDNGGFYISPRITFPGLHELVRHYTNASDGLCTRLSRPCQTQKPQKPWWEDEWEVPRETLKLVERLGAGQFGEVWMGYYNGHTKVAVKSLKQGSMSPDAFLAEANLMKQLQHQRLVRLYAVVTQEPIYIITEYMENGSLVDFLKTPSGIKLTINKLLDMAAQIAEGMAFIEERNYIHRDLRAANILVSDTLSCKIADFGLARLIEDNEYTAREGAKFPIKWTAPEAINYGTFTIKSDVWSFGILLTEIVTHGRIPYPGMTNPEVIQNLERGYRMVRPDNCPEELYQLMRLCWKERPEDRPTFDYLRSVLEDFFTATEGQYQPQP

[4] = target: 468 kinases including some pathogenic mutants (Homo sapiens, UniProt P57078); settings: RIPK4 (Entrez RIPK4), 100 nM; read-out: Percent Control
[5] = target: 468 kinases including some pathogenic mutants (Homo sapiens, UniProt P23443); settings: S6K1 (Entrez RPS6KB1), 1000 nM; read-out: Percent Control
468 kinases including some pathogenic mutants (Homo sapiens, UniProt P23443), sequence (P23443 whole entry, stated change not applied): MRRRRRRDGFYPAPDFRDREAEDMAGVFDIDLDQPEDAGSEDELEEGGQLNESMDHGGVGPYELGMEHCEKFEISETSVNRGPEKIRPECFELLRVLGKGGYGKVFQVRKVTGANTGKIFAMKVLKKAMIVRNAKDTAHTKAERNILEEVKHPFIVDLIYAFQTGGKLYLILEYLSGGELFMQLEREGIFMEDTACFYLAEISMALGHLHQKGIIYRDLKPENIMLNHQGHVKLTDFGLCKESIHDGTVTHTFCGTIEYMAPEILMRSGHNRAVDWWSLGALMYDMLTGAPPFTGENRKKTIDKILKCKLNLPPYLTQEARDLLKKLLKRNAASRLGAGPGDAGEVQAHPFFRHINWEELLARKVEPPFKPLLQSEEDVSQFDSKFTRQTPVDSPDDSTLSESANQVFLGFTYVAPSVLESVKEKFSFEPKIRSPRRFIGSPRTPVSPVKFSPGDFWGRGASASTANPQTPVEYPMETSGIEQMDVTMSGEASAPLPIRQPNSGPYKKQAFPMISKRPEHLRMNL

[6] = target: 468 kinases including some pathogenic mutants (Homo sapiens, UniProt P10721, T670I/V559D); settings: read-out: Percent Control
[7] = target: 468 kinases including some pathogenic mutants (Homo sapiens, UniProt P0C1S8); settings: WEE2 (Entrez WEE2), 100 nM; read-out: Percent Control
[8] = target: 468 kinases including some pathogenic mutants (Homo sapiens, UniProt P41743); settings: PRKCI (Entrez PRKCI), 100 nM; read-out: Percent Control
[9] = target: 468 kinases including some pathogenic mutants (Homo sapiens, UniProt Q13164); settings: ERK5 (Entrez MAPK7), 100 nM; read-out: Percent Control
[10] = target: 468 kinases including some pathogenic mutants (Homo sapiens, UniProt Q59H18); settings: TNNI3K (Entrez TNNI3K), 100 nM; read-out: Percent Control
468 kinases including some pathogenic mutants (Homo sapiens, UniProt Q59H18), sequence (Q59H18 whole entry, change not shown): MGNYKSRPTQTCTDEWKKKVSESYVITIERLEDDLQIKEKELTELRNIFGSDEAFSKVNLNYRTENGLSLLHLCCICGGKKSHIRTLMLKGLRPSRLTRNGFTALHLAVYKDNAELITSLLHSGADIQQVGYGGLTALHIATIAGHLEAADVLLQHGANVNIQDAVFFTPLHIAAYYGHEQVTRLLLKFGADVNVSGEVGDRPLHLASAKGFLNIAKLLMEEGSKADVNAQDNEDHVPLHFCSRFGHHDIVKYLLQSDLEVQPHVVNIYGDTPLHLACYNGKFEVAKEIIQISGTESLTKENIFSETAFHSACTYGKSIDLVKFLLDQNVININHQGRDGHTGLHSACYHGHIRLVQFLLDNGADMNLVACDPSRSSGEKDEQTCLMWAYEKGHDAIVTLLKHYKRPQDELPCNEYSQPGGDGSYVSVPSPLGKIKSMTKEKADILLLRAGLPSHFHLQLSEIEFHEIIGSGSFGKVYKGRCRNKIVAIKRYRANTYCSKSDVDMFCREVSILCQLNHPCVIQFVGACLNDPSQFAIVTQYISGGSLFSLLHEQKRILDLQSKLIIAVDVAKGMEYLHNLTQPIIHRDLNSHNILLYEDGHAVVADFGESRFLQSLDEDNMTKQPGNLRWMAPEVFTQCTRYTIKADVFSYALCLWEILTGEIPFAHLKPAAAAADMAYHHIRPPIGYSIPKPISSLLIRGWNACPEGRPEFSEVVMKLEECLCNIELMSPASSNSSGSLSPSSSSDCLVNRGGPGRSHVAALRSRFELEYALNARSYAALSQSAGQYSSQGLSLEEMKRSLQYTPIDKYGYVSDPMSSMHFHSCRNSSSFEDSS

[11] = target: 468 kinases including some pathogenic mutants (Homo sapiens, UniProt Q8TDC3); settings: BRSK1 (Entrez BRSK1), 100 nM; read-out: Percent Control
[12] = target: 468 kinases including some pathogenic mutants (Homo sapiens, UniProt Q9NYL2); settings: ZAK (Entrez ZAK), 1000 nM; read-out: Percent Control
[13] = target: 468 kinases including some pathogenic mutants (Homo sapiens, UniProt Q12852); settings: DLK (Entrez MAP3K12), 100 nM; read-out: Percent Control
[14] = target: 468 kinases including some pathogenic mutants (Homo sapiens, UniProt P42336, M1043I); settings: read-out: Percent Control
[15] = target: 468 kinases including some pathogenic mutants (Homo sapiens, UniProt P36897); settings: TGFBR1 (Entrez TGFBR1), 1000 nM; read-out: Percent Control
[16] = target: 468 kinases including some pathogenic mutants (Homo sapiens, UniProt Q00536); settings: PCTK1 (Entrez CDK16), 1000 nM; read-out: Percent Control
[17] = target: 468 kinases including some pathogenic mutants (Homo sapiens, UniProt Q05397); settings: FAK (Entrez PTK2), 100 nM; read-out: Percent Control
[18] = target: 468 kinases including some pathogenic mutants (Homo sapiens, UniProt P11802); settings: 100 nM, read-out: Percent Control
468 kinases including some pathogenic mutants (Homo sapiens, UniProt P11802), sequence (P11802 whole entry, change not shown): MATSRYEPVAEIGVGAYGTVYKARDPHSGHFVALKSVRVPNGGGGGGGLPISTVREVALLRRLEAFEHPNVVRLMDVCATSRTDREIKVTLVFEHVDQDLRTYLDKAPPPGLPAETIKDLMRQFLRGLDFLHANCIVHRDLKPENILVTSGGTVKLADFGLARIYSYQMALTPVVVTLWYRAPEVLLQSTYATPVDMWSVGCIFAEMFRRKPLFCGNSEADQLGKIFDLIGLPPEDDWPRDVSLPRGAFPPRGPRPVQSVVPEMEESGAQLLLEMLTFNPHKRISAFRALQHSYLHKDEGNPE

[19] = target: 468 kinases including some pathogenic mutants (Homo sapiens, UniProt P37173); settings: TGFBR2 (Entrez TGFBR2), 1000 nM; read-out: Percent Control
[20] = target: 468 kinases including some pathogenic mutants (Homo sapiens, UniProt P10721, D816H); settings: read-out: Percent Control
[21] = target: 468 kinases including some pathogenic mutants (Homo sapiens, UniProt Q8TBX8); settings: PIP5K2C (Entrez PIP4K2C), 100 nM; read-out: Percent Control
468 kinases including some pathogenic mutants (Homo sapiens, UniProt Q8TBX8), sequence (Q8TBX8 whole entry, change not shown): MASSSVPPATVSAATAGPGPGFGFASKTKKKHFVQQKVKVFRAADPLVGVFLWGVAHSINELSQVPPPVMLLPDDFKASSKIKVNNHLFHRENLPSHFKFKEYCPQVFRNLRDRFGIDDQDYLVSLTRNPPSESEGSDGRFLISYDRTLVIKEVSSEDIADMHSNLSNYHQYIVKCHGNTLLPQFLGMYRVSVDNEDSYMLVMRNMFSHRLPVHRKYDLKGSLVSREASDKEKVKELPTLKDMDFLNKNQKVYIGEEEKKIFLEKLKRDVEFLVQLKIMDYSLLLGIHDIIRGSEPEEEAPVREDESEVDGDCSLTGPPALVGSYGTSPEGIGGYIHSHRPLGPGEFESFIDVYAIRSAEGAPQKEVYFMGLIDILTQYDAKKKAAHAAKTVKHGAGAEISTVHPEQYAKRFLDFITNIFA

[22] = target: 468 kinases including some pathogenic mutants (Homo sapiens, UniProt Q9UEW8); settings: STK39 (Entrez STK39), 100 nM; read-out: Percent Control
[23] = target: 468 kinases including some pathogenic mutants (Homo sapiens, UniProt Q16566); settings: CAMK4 (Entrez CAMK4), 100 nM; read-out: Percent Control
[24] = target: 468 kinases including some pathogenic mutants (Homo sapiens, UniProt O14965); settings: AURKA (Entrez AURKA), 100 nM; read-out: Percent Control
[25] = target: 468 kinases including some pathogenic mutants (Homo sapiens, UniProt P24723); settings: PRKCH (Entrez PRKCH), 1000 nM; read-out: Percent Control
[26] = target: 468 kinases including some pathogenic mutants (Homo sapiens, UniProt P57059); settings: SIK (Entrez SIK1), 100 nM; read-out: Percent Control
[27] = target: 468 kinases including some pathogenic mutants (Homo sapiens, UniProt P23458); settings: read-out: Percent Control
468 kinases including some pathogenic mutants (Homo sapiens, UniProt P23458), sequence (P23458 whole entry, change not shown): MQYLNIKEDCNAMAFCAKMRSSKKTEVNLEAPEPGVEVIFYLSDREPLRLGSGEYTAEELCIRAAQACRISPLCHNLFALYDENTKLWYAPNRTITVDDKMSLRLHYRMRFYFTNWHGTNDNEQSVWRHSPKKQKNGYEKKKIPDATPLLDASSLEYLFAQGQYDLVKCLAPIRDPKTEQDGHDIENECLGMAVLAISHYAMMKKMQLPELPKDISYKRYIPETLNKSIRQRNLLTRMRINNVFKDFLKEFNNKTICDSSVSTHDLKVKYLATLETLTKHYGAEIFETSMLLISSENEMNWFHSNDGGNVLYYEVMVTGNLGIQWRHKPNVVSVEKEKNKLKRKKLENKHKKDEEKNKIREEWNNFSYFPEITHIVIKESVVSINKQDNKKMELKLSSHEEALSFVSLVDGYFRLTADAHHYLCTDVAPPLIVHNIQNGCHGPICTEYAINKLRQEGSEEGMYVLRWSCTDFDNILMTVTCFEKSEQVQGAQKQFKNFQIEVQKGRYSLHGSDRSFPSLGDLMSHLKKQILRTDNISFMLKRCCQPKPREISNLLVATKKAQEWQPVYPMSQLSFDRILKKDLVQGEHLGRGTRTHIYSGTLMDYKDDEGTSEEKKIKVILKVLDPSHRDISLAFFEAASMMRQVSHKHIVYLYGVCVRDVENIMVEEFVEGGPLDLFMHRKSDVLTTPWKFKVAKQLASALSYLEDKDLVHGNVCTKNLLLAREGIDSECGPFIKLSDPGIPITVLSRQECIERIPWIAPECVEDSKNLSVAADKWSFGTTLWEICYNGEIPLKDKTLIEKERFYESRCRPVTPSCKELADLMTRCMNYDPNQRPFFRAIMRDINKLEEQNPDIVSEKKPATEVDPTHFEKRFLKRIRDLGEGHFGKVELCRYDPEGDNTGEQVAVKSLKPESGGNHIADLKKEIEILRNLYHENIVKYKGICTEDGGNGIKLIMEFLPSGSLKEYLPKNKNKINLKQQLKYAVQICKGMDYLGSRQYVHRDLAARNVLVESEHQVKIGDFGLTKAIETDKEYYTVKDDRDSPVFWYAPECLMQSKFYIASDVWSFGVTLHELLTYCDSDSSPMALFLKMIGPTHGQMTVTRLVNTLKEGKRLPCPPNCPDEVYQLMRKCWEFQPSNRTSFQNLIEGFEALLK

[28] = target: 468 kinases including some pathogenic mutants (Homo sapiens, UniProt P36896); settings: ACVR1B (Entrez ACVR1B), 100 nM; read-out: Percent Control
468 kinases including some pathogenic mutants (Homo sapiens, UniProt P36896), sequence (P36896 24-505, change not shown): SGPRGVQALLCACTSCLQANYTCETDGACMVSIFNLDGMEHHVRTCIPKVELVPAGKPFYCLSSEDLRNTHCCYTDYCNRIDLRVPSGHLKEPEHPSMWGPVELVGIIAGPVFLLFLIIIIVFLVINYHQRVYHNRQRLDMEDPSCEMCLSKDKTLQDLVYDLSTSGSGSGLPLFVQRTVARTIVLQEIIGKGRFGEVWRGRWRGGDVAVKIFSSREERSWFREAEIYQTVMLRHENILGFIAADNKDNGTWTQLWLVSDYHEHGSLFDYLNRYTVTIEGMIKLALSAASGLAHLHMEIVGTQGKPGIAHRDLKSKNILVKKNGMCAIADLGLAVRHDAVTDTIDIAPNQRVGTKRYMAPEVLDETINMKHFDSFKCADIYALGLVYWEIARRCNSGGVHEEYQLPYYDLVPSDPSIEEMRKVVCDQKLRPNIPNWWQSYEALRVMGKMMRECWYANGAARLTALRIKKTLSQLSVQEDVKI

468 kinases including some pathogenic mutants (Homo sapiens, UniProt Q13237), sequence (Q13237 whole entry, change not shown): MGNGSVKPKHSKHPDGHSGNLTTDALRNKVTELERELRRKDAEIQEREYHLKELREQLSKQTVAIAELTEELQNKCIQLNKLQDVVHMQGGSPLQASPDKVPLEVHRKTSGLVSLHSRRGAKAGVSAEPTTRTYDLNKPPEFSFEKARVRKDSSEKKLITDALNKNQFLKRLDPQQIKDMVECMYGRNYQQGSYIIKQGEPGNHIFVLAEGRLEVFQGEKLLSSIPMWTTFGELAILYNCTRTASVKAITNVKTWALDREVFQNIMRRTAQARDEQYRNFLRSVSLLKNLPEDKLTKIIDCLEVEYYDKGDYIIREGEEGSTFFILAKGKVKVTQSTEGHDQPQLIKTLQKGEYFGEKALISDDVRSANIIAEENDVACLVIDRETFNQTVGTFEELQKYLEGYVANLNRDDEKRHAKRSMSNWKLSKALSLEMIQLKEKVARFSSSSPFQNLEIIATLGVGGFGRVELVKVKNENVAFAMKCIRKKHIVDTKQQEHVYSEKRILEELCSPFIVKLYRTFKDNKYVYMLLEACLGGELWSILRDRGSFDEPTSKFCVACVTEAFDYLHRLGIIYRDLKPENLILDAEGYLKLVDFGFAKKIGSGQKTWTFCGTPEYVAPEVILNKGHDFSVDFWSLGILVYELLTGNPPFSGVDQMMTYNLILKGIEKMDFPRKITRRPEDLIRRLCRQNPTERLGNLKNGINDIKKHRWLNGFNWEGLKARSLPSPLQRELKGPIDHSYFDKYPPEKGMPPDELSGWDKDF

CN1C(=O)[C@@H](N2CCc3c(nn(Cc4ccccc4)c3C(N)=O)C2=O)COc2cc(Cl)ccc21 [Compound 10, (S)-2-benzyl-6-(8-chloro-5-methyl-4-oxo-2,3,4,5-tetrahydrobenzo[b][1,4]oxazepin-3-yl)-7-oxo-4,5,6,7-tetrahydro-2H-pyrazolo[3,4-c]pyridine-3-carboxamide]
remaining activity at 0.1 µM [1]: 77% | remaining activity at 0.1 µM [2]: 89% | remaining activity at 0.1 µM [3]: 100% | remaining activity at 0.1 µM [4]: 96% | remaining activity at 1 µM [5]: 100% | remaining activity at 1 µM [6]: 100% | remaining activity at 0.1 µM [7]: 77% | remaining activity at 0.1 µM [8]: 81% | remaining activity at 0.1 µM [9]: 85% | remaining activity at 0.1 µM [10]: 82% | remaining activity at 0.1 µM [11]: 91% | remaining activity at 1 µM [12]: 100% | remaining activity at 0.1 µM [13]: 72% | remaining activity at 0.1 µM [14]: 78% | remaining activity at 1 µM [15]: 100% | remaining activity at 1 µM [16]: 100% | remaining activity at 0.1 µM [17]: 82% | remaining activity at 0.1 µM ([18]; CDK4 (Entrez CDK4)): 94% | remaining activity at 0.1 µM ([18]; CDK4-cyclinD1 (Entrez CDK4)): 77% | remaining activity at 0.1 µM ([18]; CDK4-cyclinD3 (Entrez CDK4)): 92% | remaining activity at 1 µM [19]: 100% | remaining activity at 0.1 µM [20]: 100% | remaining activity at 0.1 µM [21]: 91% | remaining activity at 0.1 µM [22]: 67% | remaining activity at 0.1 µM [23]: 76% | remaining activity at 0.1 µM [24]: 58% | remaining activity at 1 µM [25]: 100% | remaining activity at 0.1 µM [26]: 71% | remaining activity at 0.1 µM ([27]; JAK1(JH1domain-catalytic) (Entrez JAK1), 100 nM): 83% | remaining activity at 0.1 µM [27]: 97% | remaining activity at 0.1 µM [28]: 89%
